Values of other authors in patent US20260207574A1, “Pharmaceutical composition of pitolisant hydrochloride and Their Process for the preparation” (MSN Laboratories Private Limited, R & D Center, priority 2022, published 2026).
Structures can show the parent of a compound that is named as a salt.

Key:
[1] = leads to N-oxide derivative as main degradation product; as per EMA
[2] = until 75% RH; as per EMA

Structure (SMILES) | solubility in acetone (acetone) | solubility in cyclohexane (cyclohexane) | solubility in ethanol (ethanol) | solubility in methylene chloride (methylene chloride) | solubility in water (water) | solubility in water until pH 7.5 (water, until pH 7.5, as per EMA) | sensitivity to oxidative conditions [1] | hygroscopicity [2]
Clc1ccc(CCCOCCCN2CCCCC2)cc1 [Pitolisant hydrochloride, 1-{3-[3-(4-chlorophenyl)propoxy]propyl} piperidine, hydrochloride] | freely soluble | practically insoluble | very soluble | very soluble | very soluble | – | – | –
Clc1ccc(CCCOCCCN2CCCCC2)cc1 [pitolisant] | – | – | – | – | – | very soluble | sensitive to excessive oxidative conditions | not hygroscopic
